Among the data in EP1832576A1, “4-Biarylyl-1-phenolyzetidin-2-ones” (Microbia Inc., priority 2003, dated 2005) are inhibition values, retold here.

One assay relates to cholesterol absorption from the intestine. Put plainly: In Vivo Assay of Hypolipidemic Agents using the Rat Cholesterol Absorption Model. Also noted: species or system Female Sprague-Dawley rats. The conditions noted are these: po, Table 1, footnote 3, perorally, 5 mg/kg, 3H levels in serum three hours after 3H-cholesterol. The procedure:
In Vivo Assay of Hypolipidemic Agents using the Rat Cholesterol Absorption Model. This model is based on models described by Burnett et al (2002), Bioorg. Med. Chem. Lett. 2002 Feb 11;12(3):315-8 and J. Lipid Res. 1999 Oct;40(10):1747-57. Female Sprague-Dawley rats weighing 150-250g are separated into […] and fasted overnight. The animals (4-6/group) are dosed perorally with 300µL test compounds in olive oil or suitable vehicle. Thirty minutes later, 3-5 microCuries ^3H-cholesterol per rat are delivered perorally in 300 µL olive oil. After three hours, 200 µL serum is collected, vortexed with scintillation fluid, and measured for radioactivity in a scintillation counter. Percent inhibition is defined as 100*(1-Ctest/Cctrl), where Ctest and Cctrl refer to ^3H levels in serum for the test compound and for the vehicle only control, respectively. Percent inhibition values are reported for a fixed dose. The ED50 is the dose at which the half-maximal effect on serum ^3H levels is observed for a given test compound.
Representative compounds of the invention were tested in the Rat Cholesterol Absorption model above.
With `N#Cc1cccc(-c2ccc([C@@H]3[C@@H](CC[C@H](O)c4ccc(F)cc4)C(=O)N3c3ccc(F)cc3)cc2)c1` [Example 14, 4'-{(2S,3R)-1-(4-fluorophenyl)-3-[(3S)-3-(4-fluorophenyl)-3-hydroxypropyl]-4-oxoazetidin-2-yl}biphenyl-3-carbonitrile], 5 mg/kg produced 32% inhibition.

The assay is the same for the next values; noted with them: po, Table 1, perorally, 1 mg/kg, 3H levels in serum three hours after 3H-cholesterol, versus vehicle only control.
With `O=C1[C@H](CC[C@H](O)c2ccc(F)cc2)[C@@H](c2ccc(-c3ccc(O)cc3)cc2)N1c1ccc(F)cc1` [Example 2, (3R,4S)-1-(4-fluorophenyl)-3-[(3S)-3-(4-fluorophenyl)-3-hydroxypropyl]-4-(4'-hydroxybiphenyl-4-yl)azetidin-2-one], at 1 mg/kg the inhibition was 54%. `COc1ccc(C=O)c(-c2ccc([C@@H]3[C@@H](CC[C@H](O)c4ccc(F)cc4)C(=O)N3c3ccc(F)cc3)cc2)c1` [Example 85, 4'-{(2S,3R)-1-(4-fluorophenyl)-3-[(3S)-3-(4-fluorophenyl)-3-hydroxypropyl]-4-oxoazetidin-2-yl}-5-methoxybiphenyl-2-carbaldehyde] gave an inhibition at 1 mg/kg of 15%.

Regarding `COc1ccc(-c2ccc([C@@H]3[C@@H](CC[C@H](O)c4ccc(F)cc4)C(=O)N3c3ccc(F)cc3)cc2)c(OC)c1` [Example 97, (3R,4S)-4-(2',4'-dimethoxybiphenyl-4-yl)-1-(4-fluorophenyl)-3-[(3S)-3-(4-fluorophenyl)-3-hydroxypropyl]azetidin-2-one], at 1 mg/kg the inhibition was 40%. With `O=C1[C@H](CC[C@H](O)c2ccc(F)cc2)[C@@H](c2ccc(-c3ccc4c(c3)OCCO4)cc2)N1c1ccc(F)cc1` [Example 87, (3R,4S)-4-[4-(2,3-dihydro-1,4-benzodioxin-6-yl)phenyl]-1-(4-fluorophenyl)-3-[(3S)-3-(4-fluorophenyl)-3-hydroxypropyl]azetidin-2-one], the inhibition at 1 mg/kg stood at 59%. Same read-out and setting: the result for `CS(=O)(=O)c1ccc(-c2ccc([C@@H]3[C@@H](CC[C@H](O)c4ccc(F)cc4)C(=O)N3c3ccc(F)cc3)cc2)cc1` [Example 8, (3R,4S)-1-(4-fluorophenyl)-3-[(3S)-3-(4-fluorophenyl)-3-hydroxypropyl]-4-[4'-(methylsulfonyl)biphenyl-4-yl]azetidin-2-one] reads 53%; that for `C=Cc1ccc(-c2ccc([C@@H]3[C@@H](CC[C@H](O)c4ccc(F)cc4)C(=O)N3c3ccc(F)cc3)cc2)cc1` [Example 84, (3R,4S)-1-(4-fluorophenyl)-3-[(3S)-3-(4-fluorophenyl)-3-hydroxypropyl]-4-(4'-vinylbiphenyl-4-yl)azetidin-2-one], 51%; that for `O=C1[C@H](CC[C@H](O)c2ccc(F)cc2)[C@@H](c2ccc(-c3ccc([C@H]4O[C@@H](CO)[C@H](O)[C@@H](O)[C@@H]4O)cc3)cc2)N1c1ccc(F)cc1` [Example 116, (1R)-1,5-anhydro-1-(4'-{(2S,3R)-1-(4-fluorophenyl)-3-[(3S)-3-(4-fluorophenyl)-3-hydroxypropyl]-4-oxoazetidin-2-yl}biphenyl-4-yl)-L-glucitol], 81%. On to `CN(C)c1ccc(-c2ccc([C@@H]3[C@@H](CC[C@H](O)c4ccc(F)cc4)C(=O)N3c3ccc(F)cc3)cc2)cc1` [Example 17, (3R,4S)-4-[4'(dimethylamino)biphenyl-4-yl]-1-(4-fluorophenyl)-3-[(3S)-3-(4-fluorophenyl)-3-hydroxypropyl]azetidin-2-one], for which at 1 mg/kg the inhibition was 43%. Still for that read-out and setting: the result for `COc1cc(-c2ccc([C@@H]3[C@@H](CC[C@H](O)c4ccc(F)cc4)C(=O)N3c3ccc(F)cc3)cc2)ccc1O` [Example 102, (3R,4S)-1-(4-fluorophenyl)-3-[(3S)-3-(4-fluorophenyl)-3-hydroxypropyl]-4-(4'-hydroxy-3'-methoxybiphenyl-4-yl)azetidin-2-one] reads 56%. With `O=C1[C@H](CC[C@H](O)c2ccc(F)cc2)[C@@H](c2ccc(-c3cc(O)cc(F)c3)cc2)N1c1ccc(F)cc1` [Example 112, (3R,4S)-4-(3'-fluoro-5'-hydroxybiphenyl-4-yl)-1-(4-fluorophenyl)-3-[(3S)-3-(4-fluorophenyl)-3-hydroxypropyl]azetidin-2-one], the inhibition at 1 mg/kg was found to be 75%. In turn, `O=C1[C@H](CC[C@H](O)c2ccc(F)cc2)[C@@H](c2ccc(-c3cccc(OC[C@H]4OC(O)[C@H](O)[C@@H](O)[C@@H]4O)c3)cc2)N1c1ccc(F)cc1` (stereo partly drawn) [Example 76, 6-O-(4'-{(2S,3R)-1-(4-Fluorophenyl)-3-[(3S)-3-(4-fluorophenyl)-3-hydroxypropyl]-4-oxoazetidin-2-yl}biphenyl-3-yl)-D-glucopyranose] yielded an inhibition at 1 mg/kg of 56%.

As for `O=C1C(CCC(O)c2ccc(F)cc2)C(c2ccc(-c3ccc(CO)cc3)cc2)N1c1ccc(F)cc1` (stereo not shown) [Example 18], the inhibition at 1 mg/kg is 48%. `O=C1[C@H](CC[C@H](O)c2ccc(F)cc2)[C@@H](c2ccc(-c3cccc(S)c3)cc2)N1c1ccc(F)cc1` [Example 119, (3R,4S)-1-(4-fluorophenyl)-3-[(3S)-3-(4-fluorophenyl)-3-hydroxypropyl]-4-(3'-mercaptobiphenyl-4-yl)azetidin-2-one] came in with an inhibition at 1 mg/kg of 56%. Molecule `COc1cc(F)cc(-c2ccc([C@@H]3[C@@H](CC[C@H](O)c4ccc(F)cc4)C(=O)N3c3ccc(F)cc3)cc2)c1` [Example 111, (3R,4S)-4-(3'-fluoro-5'-methoxybiphenyl-4-yl)-1-(4-fluorophenyl)-3-[(3S)-3-(4-fluorophenyl)-3-hydroxypropyl]azetidin-2-one] showed an inhibition at 1 mg/kg of 72%. Same read-out and setting: in the case of `O=C1[C@H](CC[C@H](O)c2ccc(F)cc2)[C@@H](c2ccc(-c3ccc4ccccc4c3)cc2)N1c1ccc(F)cc1` [Example 91, (3R,4S)-1-(4-fluorophenyl)-3-[(3S)-3-(4-fluorophenyl)-3-hydroxypropyl]-4-[4-(2-naphthyl)phenyl]azetidin-2-one] it was 56%; in that of `COc1cccc(-c2ccc([C@@H]3[C@@H](CC[C@H](O)c4ccc(F)cc4)C(=O)N3c3ccc(F)cc3)cc2)c1` [Example 12, (3R,4S)-1-(4-fluorophenyl)-3-[(3S)-3-(4-fluorophenyl)-3-hydroxypropyl]-4-(3'-methoxybiphenyl-4-yl)azetidin-2-one], 70%. In the case of `O=C(O)Cc1ccc(-c2ccc([C@@H]3[C@@H](CC[C@H](O)c4ccc(F)cc4)C(=O)N3c3ccc(F)cc3)cc2)cc1` [Example 88, (4'-{(2S,3R)-1-(4-fluorophenyl)-3-[(3S)-3-(4-fluorophenyl)-3-hydroxypropyl]-4-oxoazetidin-2-yl}biphenyl-4-yl)acetic acid], at 1 mg/kg the inhibition was 30%. Turning to `Cc1cccc(-c2ccc([C@@H]3[C@@H](CC[C@H](O)c4ccc(F)cc4)C(=O)N3c3ccc(F)cc3)cc2)c1` [Example 93, (3R,4S)-1-(4-fluorophenyl)-3-[(3S)-3-(4-fluorophenyl)-3-hydroxypropyl]-4-(3'-methylbiphenyl-4-yl)azetidin-2-one], the inhibition at 1 mg/kg came to 28%.

The assay is the same for the next values; noted with them: po, Table 2, perorally, 1 mg/kg, 3H levels in serum three hours after 3H-cholesterol, versus vehicle only control.
Molecule `O=C1[C@H](CC[C@H](O)c2ccc(F)cc2)[C@@H](c2ccc(-c3cccc([C@H](O)[C@H]4OC(O)[C@H](O)[C@@H](O)[C@@H]4O)c3)cc2)N1c1ccccc1` (stereo partly drawn) [Example 71, (6S)-6-C-(4'-{(2S,3R)-3-[(3S)-3-(4-Fluorophenyl)-3-hydroxypropyl]-4-oxo-1-phenylazetidin-2-yl}biphenyl-3-yl)-D-glucopyranose] had an inhibition at 1 mg/kg of 65%.

In the case of `O=C1[C@H](CC[C@H](O)c2ccc(F)cc2)[C@@H](c2ccc(-c3cccc([C@H](O)[C@H]4OC(O)[C@H](O)[C@@H](O)[C@@H]4O)c3)cc2O)N1c1ccccc1` (stereo partly drawn) [Example 73, (6S)-6-C-(4'-{(2S,3R)-3-[(3S)-3-(4-Fluorophenyl)-3-hydroxypropyl]-4-oxo-1-phenylazetidin-2-yl}-3'-hydroxybiphenyl-3-yl)-D-glucopyranose], testing at 1 mg/kg gave an inhibition of 59%. `O=C1[C@H](CC[C@H](O)c2ccc(F)cc2)[C@@H](c2ccc(-c3ccc(O)cc3)s2)N1c1ccccc1` [Example 51, (3R,4S)-3-[(3S)-3-(4-Fluorophenyl)-3-hydroxypropyl]-4-[5-(4-hydroxyphenyl)-2-thienyl]-1-phenylazetidin-2-one] yielded an inhibition at 1 mg/kg of 39%. For the molecule `O=C1[C@H](CC[C@H](O)c2ccc(F)cc2)[C@@H](c2ccc(-c3cccc(O)c3)cn2)N1c1ccccc1` [Example 49, (3R,4S)-3-[(3S)-3-(4-fluorophenyl)-3-hydroxypropyl]-4-[5-(3-hydroxyphenyl)pyridin-2-yl]-1-phenylazetidin-2-one], 1 mg/kg produced 30% inhibition.

`O=C1[C@H](CC[C@H](O)c2ccc(F)cc2)[C@@H](c2ccc(-c3cccc(B(O)O)c3)cc2)N1c1ccccc1` [Example 59, (4'-{(2S,3R)-3-[(3S)-3-(4-Fluorophenyl)-3-hydroxypropyl]-4-oxo-1-phenylazetidin-2-yl}biphenyl-3-yl)boronic acid] had an inhibition at 1 mg/kg of 70%. `O=C1[C@H](CC[C@H](O)c2ccc(F)cc2)[C@@H](c2ccc(-c3cccc([C@@H](O)[C@H]4OC(O)[C@H](O)[C@@H](O)[C@@H]4O)c3)cc2O)N1c1ccccc1` (stereo partly drawn) [Example 74, (6R)-6-C-(4'-{(2S,3R)-3-[(3S)-3-(4-Fluorophenyl)-3-hydroxypropyl]-4-oxo-1-phenylazetidin-2-yl}-3'-hydroxybiphenyl-3-yl)-D-glucopyranose] yielded an inhibition at 1 mg/kg of 67%.
